Reference: BindingDB's records for patent US12234222 (Zhejiang Hisun Pharmaceutical, 2025)
pIC50: −log10 of the molar value.

Experiments:
[1] = target: Proto-oncogene tyrosine-protein kinase receptor Ret (Homo sapiens, UniProt P07949); experiment: RET Kinase Assay
Experimental: The experimental steps are as follows:(1) The test compound (the compound of the present disclosure, and compound 164 in WO2018017983A1 as a control) was dissolved in 100% DMSO to a final concentration of 10 mM.(2) 4 μL of the test compound solution prepared in step (1) was dissolved with 46 μL of 100% DMSO, and the solution obtained in this step was numbered as No. 2.(3) No. 2 solution was subjected to subsequent gradient dilution with a dilution factor of 5 times (i.e. 20 μL of 100% DMSO was added to 5 μL of the compound), a total of 9 gradients, numbered 3 to 11.Note: No. 2 was not used for the dilution in step (4).(Unless otherwise specified, the following steps need to be carried out on ice)(4) The buffer provided in the kit (Cisbio, Cat. No. 62TK0PEB) was used to continuously serially dilute the solutions numbered from 3 to 11 with a dilution factor of 20 times (that is, adding 19 μL of buffer to the solutions numbered from 3 to 11). […] After the incubation, the TF-FRET mode of the microplate reader (BMG Labtech, model: FLUOStar Omega) was adopted to measure the fluorescence intensity at an excitation wavelength of 304 nm and emission wavelengths of 615 nm and […] in each well. […]

[2] = target: Vascular endothelial growth factor receptor 2 (Homo sapiens, UniProt P35968)
Chain of Vascular endothelial growth factor receptor 2 (P35968 whole entry): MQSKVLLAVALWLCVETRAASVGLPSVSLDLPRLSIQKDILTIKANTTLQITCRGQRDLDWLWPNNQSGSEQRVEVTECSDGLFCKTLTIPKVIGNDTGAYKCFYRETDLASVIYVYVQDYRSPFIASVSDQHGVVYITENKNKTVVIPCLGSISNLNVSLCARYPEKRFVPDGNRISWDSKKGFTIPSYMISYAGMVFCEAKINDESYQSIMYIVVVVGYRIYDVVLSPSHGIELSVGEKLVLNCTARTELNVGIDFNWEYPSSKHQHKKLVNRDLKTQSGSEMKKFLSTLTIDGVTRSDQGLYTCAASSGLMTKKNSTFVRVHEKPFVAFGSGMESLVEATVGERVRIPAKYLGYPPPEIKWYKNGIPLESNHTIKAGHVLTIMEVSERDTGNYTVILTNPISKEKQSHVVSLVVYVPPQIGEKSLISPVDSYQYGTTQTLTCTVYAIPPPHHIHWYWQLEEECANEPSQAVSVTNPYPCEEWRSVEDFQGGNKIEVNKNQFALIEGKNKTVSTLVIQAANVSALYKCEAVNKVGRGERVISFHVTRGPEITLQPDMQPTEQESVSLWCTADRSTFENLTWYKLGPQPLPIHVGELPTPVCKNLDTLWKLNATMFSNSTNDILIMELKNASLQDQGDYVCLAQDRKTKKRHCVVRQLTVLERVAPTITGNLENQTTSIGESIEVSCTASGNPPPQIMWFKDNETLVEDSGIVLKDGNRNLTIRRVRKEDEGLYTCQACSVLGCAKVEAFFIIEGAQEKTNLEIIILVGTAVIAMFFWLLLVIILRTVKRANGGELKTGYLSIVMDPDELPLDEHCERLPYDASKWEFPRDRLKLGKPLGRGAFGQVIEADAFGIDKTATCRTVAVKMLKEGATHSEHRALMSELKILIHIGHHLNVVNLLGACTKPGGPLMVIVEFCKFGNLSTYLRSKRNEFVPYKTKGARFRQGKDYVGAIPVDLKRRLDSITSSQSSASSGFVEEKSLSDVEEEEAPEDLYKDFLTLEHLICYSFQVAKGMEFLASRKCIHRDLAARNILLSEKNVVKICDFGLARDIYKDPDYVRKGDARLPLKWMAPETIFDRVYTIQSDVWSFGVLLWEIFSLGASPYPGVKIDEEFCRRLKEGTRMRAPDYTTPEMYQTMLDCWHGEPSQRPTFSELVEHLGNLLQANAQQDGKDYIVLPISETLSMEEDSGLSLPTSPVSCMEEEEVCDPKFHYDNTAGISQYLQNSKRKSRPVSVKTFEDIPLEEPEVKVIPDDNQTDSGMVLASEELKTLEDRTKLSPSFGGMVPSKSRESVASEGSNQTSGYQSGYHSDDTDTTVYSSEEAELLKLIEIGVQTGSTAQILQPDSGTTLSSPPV

Chain of Proto-oncogene tyrosine-protein kinase receptor Ret (P07949 whole entry): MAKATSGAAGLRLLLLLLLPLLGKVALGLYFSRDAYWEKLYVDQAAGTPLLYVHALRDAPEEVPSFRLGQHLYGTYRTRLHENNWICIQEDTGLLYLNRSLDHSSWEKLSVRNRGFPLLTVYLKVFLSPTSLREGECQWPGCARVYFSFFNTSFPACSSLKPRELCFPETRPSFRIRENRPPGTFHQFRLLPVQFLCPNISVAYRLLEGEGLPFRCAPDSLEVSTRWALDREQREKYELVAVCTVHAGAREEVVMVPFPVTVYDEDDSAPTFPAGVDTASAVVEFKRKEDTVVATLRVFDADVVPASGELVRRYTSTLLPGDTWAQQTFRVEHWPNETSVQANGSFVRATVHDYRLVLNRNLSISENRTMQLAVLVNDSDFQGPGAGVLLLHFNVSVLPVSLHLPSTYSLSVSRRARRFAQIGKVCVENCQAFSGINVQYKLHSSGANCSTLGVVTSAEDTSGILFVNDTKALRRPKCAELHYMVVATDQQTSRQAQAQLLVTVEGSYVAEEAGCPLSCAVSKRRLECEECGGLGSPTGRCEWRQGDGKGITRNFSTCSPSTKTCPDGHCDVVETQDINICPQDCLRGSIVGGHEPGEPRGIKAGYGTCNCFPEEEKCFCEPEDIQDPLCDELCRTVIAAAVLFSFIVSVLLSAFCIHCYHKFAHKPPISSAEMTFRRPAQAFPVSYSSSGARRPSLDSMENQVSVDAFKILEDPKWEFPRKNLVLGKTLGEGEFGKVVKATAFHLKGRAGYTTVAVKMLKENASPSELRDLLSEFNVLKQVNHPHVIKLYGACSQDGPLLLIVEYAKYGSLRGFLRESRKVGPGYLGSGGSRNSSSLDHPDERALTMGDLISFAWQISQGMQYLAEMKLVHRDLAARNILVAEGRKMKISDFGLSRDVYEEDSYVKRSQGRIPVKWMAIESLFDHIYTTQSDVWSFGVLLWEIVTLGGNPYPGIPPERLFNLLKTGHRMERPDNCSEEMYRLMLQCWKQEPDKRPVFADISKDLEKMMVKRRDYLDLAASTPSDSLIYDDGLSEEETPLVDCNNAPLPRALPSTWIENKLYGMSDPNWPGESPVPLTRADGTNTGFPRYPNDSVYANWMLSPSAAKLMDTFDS

Cc1cc(Nc2cc(C)[nH]n2)nc(N2CC3CCC(C2)N3C(=O)c2ccc(-n3cc(Cl)cn3)nc2)n1 [US12234222, Compound I-8]
pIC50 [1]: 8.77 | pIC50 [2]: 6.97

Cc1cc(Nc2ccnc(N3CC4CCC(C3)N4C(=O)c3ccc(-n4cc(F)cn4)nn3)n2)n[nH]1 [US12234222, Compound I-14]
pIC50 [1]: 8.41 | pIC50 [2]: 6.85
